The source of these data is patent US20250368667A1, “USP1 INHIBITOR” (Shanghai Qilu Pharmaceutical Research and Development …, priority 2022, published 2025).

The test system of data set [1] is NCI-H1693 cells. As to the kind of experiment: USP1 CTG test: NCI-H1693 cell killing experiment. It is filed as cell-based. The settings on record: 6 days, CTG detection, read-out: IC50 (inhibition of NCI-H1693 cells). Here is the method: Test Example 2 USP1 CTG Test Method
NCI-H1693 cell killing experiment was used to verify the biological activity of USP1i compound in vitro.
NCI-H1693 cells were purchased from ATCC (article number: CRL-5866) and cultured in a cell incubator with 5% CO2 (containing 5% CO2 and 95% air by volume) at 37° C.; 1640 complete medium: comprising 94 wt % RPMI-1640 liquid medium (Gibco, article number: 11875-093), 5 wt % FBS (Gibco, article number: 10099-141), and 1 wt % Pen Strep (Gibco, article number: 15070-063): Fluorescent 384-well plate (Perkin Elmer, article number: 6007279); Trypsin (Gibco, article number: 25200056); CTG Buffer (CellTiter-Glo® 2.0 Cell Viability Assay, Promega, article number: G9241).
[formula] • X: Log10 (compound complex concentration); • Y: corresponding response;
Top and Bottom: corresponding response corresponding to the same unit of Y; and it is noted that: • if X is not the logarithm of dosage, data shall be returned and converted; • if any baseline response is subtracted, the Bottom is set as a constant value of 0.0; and fitting the data to get the IC50 value; • wherein the fitting conditions may be adjusted according to the specific conditions of the data; specifically, Constraint conditions of Bottom, TOP and HillSlope may be adjusted appropriately so as to achieve the curve that is most in line with the actual situation.

Data set [2] concerns OV0589 Patient-derived Xenograft (PDX). As to the kind of experiment: Pharmacodynamic experiment of OV0589 patient-derived xenograft (PDX). It is filed as in vivo, Female BALB/c nude mice. The settings on record: oral; for TGI % (tumor growth inhibition rate): Day 36, OV0589 PDX in BALB/c nude mice; for inhibitory effect on tumor growth (FIG. 1): OV0589 PDX. How it is done: Test Example 5 Pharmacodynamic Experiment of OV0589 Patient-derived Xenograft (PDX)
Female BALB/c nude mice were used as test animals. After oral administration of the compound of this application, the tumor was measured and weighed regularly, and the tumor growth inhibition and tolerance in different administration groups were investigated. After the investigate, plasma and tumor were collected at a specific time point for pharmacokinetic analysis/pharmacodynamics (PK/PD) analysis.
Tumor-bearing mouse tumor (R10P8) was purchased from Sino-American Crown Biotechnology (Beijing) Co., Ltd. Ubiquityl-PCNA (Lys 164) (D5C7P) mAb antibody was purchased from Cell Siganaling company, and the article number is 13439S. PCNA (PC10) antibody was purchased from Santa Cruz company, and the article number is se-56.
Female BALB/c nude mice having a weight of between 21 and 25 g; supplier: Beijing An Kai Yibo Biotechnology Co., Ltd.
Under a temperature of 20° C. to 26° C. and a humidity of 30% to 70% and alternate illumination day and night, when the tumor (R10P8) of the tumor-bearing mice grew to a diameter of about 1 cm (the tumor size reaches 50 to 800 mm^3), the tumor was collected and cut into tumor blocks of about 2 to 3 mm^3, and the tumor block (R10P8) was inoculated subcutaneously into the right anterior scapula of female BALB/c nude mice. The tumor growth in mice was observed regularly. After 35 days of inoculation, when the tumor (R10P8) grew to an average volume of about 150 mm^3 (the range of enrollment was 86.54 mm^3 to […]), according to the tumor size and the weight of mice, StudyDirector™ (version No. 3.1.399.19, supplied by Studylog System, Inc., S. San Francisco, California, USA) was used for random grouping, and the administration was performed for these groups the next day.
Twelve mice were randomly divided into four groups, namely, G1 to G4. Group G1 is the solvent control group, and the solvent is: 10 vol % DMSO+20 vol % Solutol+70 vol % water+5 vol % DMSO+10 vol % Solutol+85 vol % saline. Group G2 was orally administrated with KSQ4279 at a dosage of 100 mg/kg (npk), and the solvent was 5 vol % DMSO+10 vol % Solutol+85 vol % saline.
The tumor growth in mice was observed regularly, and the tumor volume was measured (see FIG. 1), and the change of body weight of mice was observed regularly (see FIG. 2). After 36 days of administration, plasma and tumor were collected for PK/PD analysis.

A short description of data set [3]: Pharmacokinetic determination in male Beagle dogs. It is filed as in vivo. As to conditions: IV 0.2 mg/kg. How it is done: Test Example 4 Pharmacokinetic Determination of Compounds of the Present Application in Male Beagle Dogs
Male Beagle dogs were used as test animals. After intravenous injection and oral administration, plasma samples were collected at specific time points. The concentration of the compound in plasma was detected by LC-MS/MS, and the DMPK parameters were calculated to evaluate the pharmacokinetic characteristics of the compound in dog plasma.
Compounds of Table 6 in this application. […] The structural formula of KSQ-4279 is: […]
Male Beagle dogs having a weight of 9 to 13 kg, supplied by Beijing Mars Biotechnology Co., Ltd.
Administration information of the compound in this application: both group IV (intravenous injection group) and group PO (oral administration group) consist of 3 dogs; for group IV, the dosage was 0.2 mg/kg and the administration volume was 0.5 mL/kg; for group PO, the dosage was 3 mg/kg and the administration volume was 3 mL/kg. The administration solvent was 5 vol % DMSO+10 vol % Solutol (Kolliphor HS 15)+85 vol % Saline (physiological saline).
0.5 mL of blood was collected from the head vein in group IV at 0.083, 0.25, 0.5, 1, 2, 4, 8 and 24 hours respectively after administration, and from the head vein in group PO at 0.25, 0.5, 1, 2, 4, 8 and 24 hours respectively after administration. The collected samples were placed in EDTA-K2 test tube; plasma was separated by centrifuging at 2 to 8° C. and 2000 g for 10 minutes, which was then stored at −80° C. until analysis of the samples.
Dog plasma samples were treated by: • 1) adding 200 μL acetonitrile to 50 μL plasma sample for precipitation, vortex mixing the mixture for 30 seconds, and centrifuging at 4° C. and 3900 rpm for 15 minutes; and • 2) diluting the obtained supernatant with water for 3 folds, and analyzing the concentration of the compounds to be detected by LC/MS/MS.

Data set [4] addresses recombinant human His6-USP1/His6-UAF1 composite protein (Homo sapiens (Human), UniProt O94782). As to the kind of experiment: USP1 enzyme activity detection (Ub-Rho fluorescence). It is filed as biochemical. The settings on record: USP1/UAF1, Ub-Rho substrate 300 nM, 1 hour pre-incubation; read-out: IC50 (enzymatic inhibition of USP1).

SMILES strings stand for the structures. Read-outs that look alike come from different tables or passages of the source.

recombinant human His6-USP1/His6-UAF1 composite protein, sequence (O94782 whole entry): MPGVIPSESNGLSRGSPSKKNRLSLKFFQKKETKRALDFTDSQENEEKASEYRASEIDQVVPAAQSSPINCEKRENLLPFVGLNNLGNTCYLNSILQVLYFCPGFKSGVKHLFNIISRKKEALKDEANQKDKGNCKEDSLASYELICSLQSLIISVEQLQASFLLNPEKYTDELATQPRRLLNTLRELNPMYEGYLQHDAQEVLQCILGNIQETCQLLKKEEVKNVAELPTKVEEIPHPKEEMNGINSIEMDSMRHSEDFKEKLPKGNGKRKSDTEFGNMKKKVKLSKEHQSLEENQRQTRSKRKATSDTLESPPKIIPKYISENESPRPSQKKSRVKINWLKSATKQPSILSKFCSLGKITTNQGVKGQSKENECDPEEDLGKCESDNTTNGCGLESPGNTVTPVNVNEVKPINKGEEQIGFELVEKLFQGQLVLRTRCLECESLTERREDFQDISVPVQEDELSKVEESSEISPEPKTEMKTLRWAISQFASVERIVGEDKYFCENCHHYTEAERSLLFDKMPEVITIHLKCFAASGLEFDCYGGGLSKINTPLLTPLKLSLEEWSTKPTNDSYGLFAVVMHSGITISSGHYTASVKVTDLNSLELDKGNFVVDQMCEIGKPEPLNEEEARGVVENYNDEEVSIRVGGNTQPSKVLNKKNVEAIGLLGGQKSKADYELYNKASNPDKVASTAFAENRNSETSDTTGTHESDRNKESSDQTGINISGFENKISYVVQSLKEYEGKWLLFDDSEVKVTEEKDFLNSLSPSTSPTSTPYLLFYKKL
recombinant human His6-USP1/His6-UAF1 composite protein, sequence (Q8TAF3 whole entry partner): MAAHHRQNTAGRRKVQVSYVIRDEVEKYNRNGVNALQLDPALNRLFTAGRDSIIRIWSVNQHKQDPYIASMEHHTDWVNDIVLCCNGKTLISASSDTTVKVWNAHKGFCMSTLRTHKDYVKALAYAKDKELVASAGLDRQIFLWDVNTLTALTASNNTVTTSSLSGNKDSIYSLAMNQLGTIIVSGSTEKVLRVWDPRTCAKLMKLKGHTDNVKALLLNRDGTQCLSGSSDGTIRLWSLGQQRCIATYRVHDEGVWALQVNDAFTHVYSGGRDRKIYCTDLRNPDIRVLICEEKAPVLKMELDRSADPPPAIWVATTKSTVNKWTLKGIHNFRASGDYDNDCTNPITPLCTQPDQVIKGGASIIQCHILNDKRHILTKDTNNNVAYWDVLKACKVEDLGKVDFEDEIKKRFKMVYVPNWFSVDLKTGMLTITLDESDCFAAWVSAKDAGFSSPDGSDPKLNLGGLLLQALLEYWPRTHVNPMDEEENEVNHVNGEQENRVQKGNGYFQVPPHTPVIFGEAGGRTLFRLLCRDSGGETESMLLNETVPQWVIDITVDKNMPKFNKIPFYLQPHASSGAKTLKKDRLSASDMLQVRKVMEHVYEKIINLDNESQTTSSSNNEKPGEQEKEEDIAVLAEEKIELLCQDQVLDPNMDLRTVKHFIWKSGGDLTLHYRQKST

What is called IC50 is the concentration needed to halve the response being measured. For `COc1ncnc(C2CC2)c1-c1ncc2c(n1)n(Cc1ccc(-c3nc(C(F)(F)F)cn3C)cc1)c1nncn21` [Comparative compound 2, reference compound], the IC50 in data set [1] (Homo sapiens, 144 h) was found to be 174 nM.
As to `COc1ncnc(C2CC2)c1-c1ncc2c3ccc(C#N)cc3n(Cc3ccc4c(c3)CCCn3cc(C(F)(F)F)nc3-4)c2n1` [Compound 58], the half-inhibitory concentration (IC50) in data set [1] was 13 nM. In addition, the “TGI % (tumor growth inhibition rate)” value in data set [2] (30 mg/kg) came out at 97.5%. For the same compound, in data set [2] (100 mg/kg), the “TGI % (tumor growth inhibition rate)” value was 107.7% and the “inhibitory effect on tumor growth (FIG. 1)” value is recorded as “the best inhibitory effect on tumor growth”. In addition, in data set [3], the AUClast amounted to 190 ng·h/mL and the “CL (overall clearance rate)” value stood at 15.8 mL/min/kg.
As a reminder, the AUC(0-t) is exposure summed from dosing to a finite time, without extrapolation to infinity. The low end stands for less exposure, the high end for more exposure. The clearance is the rate of elimination divided by the concentration. `COc1ncnc(C2CC2)c1-c1ncc2cnn(Cc3ccc(-c4nc(C(F)(F)F)cn4C(C)C)cc3)c2n1` [KSQ-4279, reference compound]: in data set [2] (100 mg/kg), the “TGI % (tumor growth inhibition rate)” value was 85.7% and the “inhibitory effect on tumor growth (FIG. 1)” value is given as “obviously worse than compound 58 (dosage of 100 mg/kg)”. For the same compound, in data set [3] (dog, plasma), the AUC(0-t) amounted to 124 ng·h/mL. Besides, the clearance in data set [3] (dog, plasma, read-out: CL (overall clearance rate) (converted)) was 28.3 mL/min/kg.
On to `COc1ncnc(C2CC2)c1-c1ncc2c3cn(C)nc3n(Cc3ccc(-c4nc(C(F)(F)F)c5n4CCOC5)cc3)c2n1` [Compound 139], for which the IC50 in data set [4] was 23.5 nM.
The same measure, in the same setting: for `COc1ncnc(C2CC2)c1-c1ncc2c3ccc(C#N)cc3n(Cc3ccc(-c4nc(C(F)(F)F)cn4C(C)C)cc3)c2n1` [Compound 51] the value was 5.9 nM.
On the same count and under the same terms, for `COc1ncnc(C2CC2)c1-c1ncc2c3ccccc3n(Cc3ccc(-n4nc(C)cc4C(F)(F)F)cc3)c2n1` [Compound 24] the value was 35.5 nM; for `COc1ncnc(C2CC2)c1-c1ncc2c3ccccc3n([C@@H](C)c3ccc(-c4nc(C(F)(F)F)cn4C(C)C)cc3)c2n1` [Compound 13-P1], 6.01 nM.
Take `COc1ncnc(C2CC2)c1-c1ncc2c3ccc(N4CC(O)C4)nc3n(Cc3ccc4c(c3)CCCn3cc(C(F)(F)F)nc3-4)c2n1` [Compound 136]: in data set [4], the IC50 worked out at 1.34 nM.
Same read-out and setting: for `COc1ncnc(C2CC2)c1-c1ncc2c3cccnc3n(Cc3ccc(-c4nc(C(F)(F)F)cn4C)cc3)c2n1` [Compound 53] the value was 5.58 nM; for `COc1ncnc(C2CC2)c1-c1ncc2c3cn(C)nc3n(Cc3ccc(-c4nc(C(F)(F)F)cn4C)c(F)c3)c2n1` [Compound 118], 3.57 nM.
Turning to `COc1ncnc(C2CC2)c1-c1ncc2c3ccc(NCCO)nc3n(Cc3ccc4c(c3)CCCn3cc(C(F)(F)F)nc3-4)c2n1` [Compound 97], the IC50 in data set [4] worked out at 2.1 nM.
Take `COc1ncnc(C2CC2)c1-c1ncc2c3ccc(N(C)S(C)(=O)=O)cc3n(Cc3ccc(-c4nc(C(F)(F)F)cn4C)cc3)c2n1` [Compound 82]: the IC50 in data set [4] stood at 4.45 nM.
Turning to `COc1ncnc(C2CC2)c1-c1ncc2c3ccncc3n(Cc3ccc(-c4nc(C(F)(F)F)c(Br)n4C)cc3)c2n1` [Compound 152], in data set [4], the IC50 is 11 nM.
The same measure, in the same setting: for `COc1ncnc(C2CC2)c1-c1ncc2c3ccc(N4CCOCC4)nc3n(Cc3ccc4c(c3)CCCn3cc(C(F)(F)F)nc3-4)c2n1` [Compound 135] the value was 4.4 nM; for `CC(C)n1ncc(Cl)c1-c1ncc2c3ccccc3n(Cc3ccc(-c4nc(C(F)(F)F)cn4C)cc3)c2n1` [Compound 20], 3.26 nM; for `CCn1cc(C(F)(F)F)nc1-c1ccc(Cn2c3cnccc3c3cnc(-c4c(OC)ncnc4C4CC4)nc32)cc1` [Compound 66], 1.62 nM.
Same read-out and setting: then `CC(C)c1ncccc1-c1ncc2c3ccncc3n(Cc3ccc(-c4nc(C(F)(F)F)cn4C)cc3)c2n1` [Compound 80], with 6.55 nM.
On the same count and under the same terms, for `COc1ncnc(C2CC2)c1-c1ncc2c3cccc(F)c3n(Cc3ccc(-n4nc(C(F)(F)F)cc4C)cc3)c2n1` [Compound 49] the value was 21.2 nM; for `COc1ccc2c3cnc(-c4c(OC)ncnc4C4CC4)nc3n(Cc3ccc(-c4nc(C(F)(F)F)cn4C(C)C)cc3)c2c1` [Compound 7, 2-(4-cyclopropyl-6-methoxypyrimidin-5-yl)-9-(4-(1-isopropyl-4-(trifluoromethyl)-1H-imidazo 1-2-yl)benzyl)-7-methoxy-9H-pyrimido[4,5-b]indole], 5.81 nM.
